According to article PMC11303286, “In silico and in vitro chemometrics, cell toxicity and permeability of naringenin 8-sulphonate and derivatives” (Frontiers in Pharmacology, 2024):

Columns and labels:
Caco-2 cells = conditions: ref Tian et al., 2009; cited from earlier work
[1] = MTT cell viability assay, HaCaT; assay type: cell-based, human; conditions: human, HaCaT keratinocyte cells, compared to control
Method: (§1) MRC-5 human lung fibroblast cells (Sigma-Aldrich, St. Louis, MO, United States) were cultured in MEM, while HaCaT human keratinocyte cells (ATCC, Manassas, VA, United States) and Caco-2 human intestinal epithelial cells (American Type Culture Collection, LGC Standards S.L.U., Spain) were cultured in DMEM. Both medium were supplemented with 10% of FBS and 1% of penicillin/streptomycin. Cells were incubated in 75 cm^2 cell culture flasks, which were placed in an incubator at 37°C, with a humidified atmosphere of 5% CO2. For the experiments, cells were seeded for 24 h in 96-well plates. MRC-5 and Caco-2 were seeded at 20,000 cells/well and HaCaT were seeded at 15,000 cells/well.
(§2) Toxicity of compounds, at 50 and 100 μM, was assessed against non-cancerous cell lines through the MTT assay after 24 h of incubation, following the protocol described in [Macedo et al., (2023)], with slight modifications. Thus, cells were exposed to MTT for 2 h, in the case of MRC-5, and 1 h 30 min, in the case of HaCaT. This assay was also performed to evaluate the response of Caco-2 cells to compounds at concentrations from 125 to 1,000 μM during the permeability assay, these cells being incubated for 4 h with the samples and exposed to MTT for 2 h. Results were expressed as percentage of viability compared to the control and correspond to the mean of, at least, three independent experiments performed in triplicate.

[2] = MTT cell viability assay, MRC-5; assay type: cell-based, human; conditions: human, MRC-5 lung fibroblast cells, MRC-5, 100 μM, compared to control
Method: as §1, §2

[3] = test system: Caco-2 human intestinal epithelial cells; experiment: MTT cell viability assay, Caco-2 (before permeability assay); assay type: cell-based; conditions: Caco-2, 4 h, concentrations until 1,000 μM
Method: as §1, §2
The ability of naringenin 8-sulphonate to cross biological barriers was tested using a Caco-2 permeability model. The first step for this assay was to test the possible impact of high concentrations of samples in Caco-2 cells during the time of the experiment. Thus, an MTT assay, using concentrations of naringenin, naringenin 4’-O-sulphate and naringenin 8-sulphonate until 1,000 μM, was performed.

[4] = Caco-2 permeability assay (Transwell); assay type: in vitro ADME, human; conditions: human; Caco-2 permeability model, 1,000 μM, 240 min time point; read-out: P app, experimental
Method: (§3) Caco-2 cells were seeded for 21 days at 112,000 cells/well in Corning® 3460 Transwell® 12 mm Polyester Membrane Inserts (Corning Incorporated, ME, United States). At every other day, culture medium was replaced and the transepithelial electrical resistance was measured to ensure values above 400 ohms until the day of the assay, to guarantee membrane integrity. For quality control purposes, Lucifer Yellow was used at 100 μg mL^-1 in the day of the assay. Briefly, one of the inserts was incubated with Lucifer Yellow during 1 h and, after that, its concentration was measured in the basolateral chamber, based on fluorescence intensity (λexc = 485 nm and λem = 535 nm). Lucifer Yellow passage, from the apical to the basolateral chamber equal or lower than 3% was considered indicative of a well-defined cell barrier phenotypically translated as good membrane integrity.
(§4) Treatments were applied in the transwells apical chamber and the basolateral chamber was filled with HBSS with calcium (1.26 mM) and magnesium (0.81 mM). At specific timepoints, namely 10, 20, 30, 60, 90, 120 and 180 min, half of the volume from the basolateral chamber was collected and replaced by the same volume of HBSS. In the last time point, at 240 min, content of both apical and basolateral compartments was collected to calculate the final mass balance. Transwells were maintained in agitation at 50 rpm, 37°C and 5% CO2 between the timepoints.
(§5) Concentration of each analyte in the different compartments was determined by HPLC-DAD using a Gilson Medical Electronics HPLC system (Villiers le Bel, France), with a Spherisorb ODS® (250 × 4.6 mm, 5 μm particle size, 100 Å pore size) column (PSS831915, Waters, Dublin, Ireland). Elution was performed for 7 min, with a flow rate of 900 μL min^-1. A mixture of methanol: water-formic acid (1%) was used as mobile phase, in a proportion of 65:35 for naringenin and 47:53 for naringenin 4’-O-sulphate and naringenin 8-sulphonate. Quantifications were performed at 285 nm.
(§6) Results were obtained from three independent experiments and each sample was analysed in triplicate. Apparent permeability (P app ) coefficient (cm s^-1) was calculated based on the equation P app = ΔQ/Δt×(1/(A×C0)), where ΔQ/Δt represents the amount of compound over time (mol s^-1), A is the monolayer area (cm^2) and C0 (mol mL^-1) is the initial drug concentration of the apical side ([Nait et al., 2009]; [Silva et al., 2020]).

Caco-2 cell monolayers = experiment: Caco-2 permeability assay (Transwell); assay type: in vitro ADME, human; conditions: for P app, experimental: Caco-2 permeability model, 1,000 μM, 240 min time point; for percentage of the amount placed in the apical chamber found in the basolateral chamber: after 240 min, 1,000 μM, apical to basolateral; for P app class, experimental: classification ref Karakucuk et al., 2021
Method: as §3, §4, §5, §6

[5] = test system: Caco-2 human intestinal epithelial cells; experiment: Alkaline comet assay (DNA damage), Caco-2; conditions: for percentage of DNA in tail, first quartile / percentage of DNA in tail, third quartile / percentage of DNA in tail, median: Caco-2, 100 μM, 24 h; for percentage of DNA in tail, median: negative control 20.98; for genotoxicity: DNA fragmentation: Caco-2, alkaline comet assay, 100 μM
Method: Caco-2 cells were incubated for 24 h in 12 well plates at a density of 350,000 cells/well. After this, they were incubated with each sample and negative control for 24 h and collected using 500 μL of trypsin (0.25%)-ethylenediaminetetraacetic acid (EDTA) (0.038%), which was then inactivated with 1 mL of Hanks’ Balanced Salt Solution (HBSS). The cell suspension was centrifuged at 1,200 rpm during 8 min at room temperature, supernatant was discarded, and cells were resuspended in 100 μL of HBSS.
Electrophoresis was carried out to evaluate the extent of DNA fragmentation. For this, agarose-coated slides were prepared using an 1% agarose solution. A volume of 20 μL from the cell suspension was involved in 170 μL of 1% low gelling temperature agarose solution and applied to the slides, which were then placed at 4°C until solidification. Slides were submerged in a lysis solution (2.5 M NaCl, 0.1 M EDTA, 10 mM Tris-HCl, pH 10) with 1% Triton-X 100, at 4°C and sheltered from the light, for 105 min. After this, slides were submerged in the electrophoresis buffer (300 mM NaOH, 1 mM EDTA, pH 13) for 40 min. A Sub-Cell GT Horizontal Electrophoresis System 15 × 15 cm tray (Bio-Rad Laboratories Lda, Oeiras, Portugal) was used to run the electrophoresis at 25 V and 240 mA during 30 min in the dark. In the end of the electrophoresis, slides were submerged for three times in a neutralization solution (0.4 M Tris-HCl, pH 7.5), during 5 min each.
For the fluorescence microscopy analysis, DAPI was added for 15 min at 0.5 μg mL^-1, the slides being washed once with HBSS in the end. Images were acquired using a Nikon Eclipse Ts2R-FL inverted microscope with a Retiga R1 camera (01-RET-R1-RM) and CFI Plan Fluor ×10 DIC objective. DNA damage was calculated using the AutoComet algorithm ([Barbe et al., 2023]) by dividing the amount of fluorescence signal correspondent to the DNA content in the comet’s tail by the signal correspondent to the total DNA in the comet. MMS 500 μM, incubated for 30 min, was used as positive control for DNA fragmentation and consequent DNA tail formation.
Comet assay was performed to evaluate possible genotoxicity of compounds. […] The percentage of DNA in the tail may be used as a parameter to evaluate the damage on DNA ([Clementi et al., 2021]).

[6] = test system: HaCaT human keratinocyte cells; experiment: MTT cell viability assay, HaCaT; assay type: cell-based; conditions: 24 h, compared to control
Method: as §1, §2

[7] = test system: MRC-5 human lung fibroblast cells; experiment: MTT cell viability assay, MRC-5; assay type: cell-based; conditions: 24 h; for cell viability: compared to control
Method: as §1, §2

HT29 cells = test system: HT29 cells; set-up: method as in Baranowska et al., 2021; conditions: concentrations up to 100 μM; ref Baranowska et al., 2021; cited from earlier work
MCF-7 = test system: MCF-7; set-up: method as in Kocyigit et al., 2016; conditions: ref Kocyigit et al., 2016; cited from earlier work
HT-29 = test system: HT-29; set-up: method as in Kocyigit et al., 2016; conditions: ref Kocyigit et al., 2016; cited from earlier work
PC-12 = test system: PC-12; set-up: method as in Kocyigit et al., 2016; conditions: ref Kocyigit et al., 2016; cited from earlier work
L-929 = test system: L-929; set-up: method as in Kocyigit et al., 2016; conditions: ref Kocyigit et al., 2016; cited from earlier work
[8] = test system: human umbilical vein endothelial cells (HUVECs); set-up: method as in earlier work; conditions: ref Çeker et al., 2019; cited from earlier work

Row | SMILES | reported P app (Caco-2 cells) | viability at 24 h, 50 µM [1] | viability at 24 h, 100 µM [1] | changes on cell viability [3] | Papp A→B at 240 min, 1000 μM [4] | P app, experimental (Caco-2 cell monolayers) | percentage of the amount placed in the apical chamber found in the basolateral chamber (Caco-2 cell monolayers) | P app class, experimental (Caco-2 cell monolayers) | percentage of DNA in tail, first quartile [5] | percentage of DNA in tail, third quartile [5] | percentage of DNA in tail, median [5] | genotoxicity: DNA fragmentation [5] | further results
1 | O=c1c(O)c(-c2ccc(O)cc2O)oc2cc(O)cc(O)c12 [morin] | 0.62 ×10⁻⁶ cm/s |  |  |  |  |  |  |  |  |  |  |  | 
2 | O=c1c(O)c(-c2cc(O)c(O)c(O)c2)oc2cc(O)cc(O)c12 [myricetin] | 1.7 ×10⁻⁶ cm/s |  |  |  |  |  |  |  |  |  |  |  | 
3 | O=C1C[C@@H](c2ccc(OS(=O)(=O)O)cc2)Oc2cc(O)cc(O)c21 [naringenin 4’-O-sulphate] |  | 95.4% | 89.2% | no significant changes on cell viability | 3.45 ×10⁻⁶ cm/s | 3.45 ×10⁻⁶ cm/s | 12.73% | → (moderate P app) | 4.33% | 33.90% | 15.89% | did not | viability at 24 h, 100 µM [2]: 81.5%
4 | O=C1C[C@@H](c2ccc(O)cc2)Oc2c1c(O)cc(O)c2S(=O)(=O)O [naringenin 8-sulphonate] |  |  |  | no significant changes on cell viability |  | 2.68 ×10⁻⁶ cm/s | 10.41% | → (moderate P app) | 7.25% | 66.61% | 31.18% | caused significant DNA fragmentation | cell viability ([6]; 50 μM): 92.99%; cell viability ([6]; 100 μM): 91.95%; cell viability ([7]; MRC-5, 50 μM): 94.77%; cell viability ([7]; MRC-5, 100 μM): 94.71%
5 | O=C1C[C@@H](c2ccc(O)cc2)Oc2cc(O)cc(O)c21 [naringenin] |  | 93.2% | 91.9% | no significant changes on cell viability | 8.29 ×10⁻⁶ cm/s | 8.29 ×10⁻⁶ cm/s | 32.01% | → (moderate P app) | 14.24% | 63.36% | 33.07% | caused significant DNA fragmentation | effect on cell viability ([7]; MRC-5, 50 and 100 μM): did not elicit any significant decrease; impact on DNA integrity (HT29 cells): no impact on DNA integrity; DNA damage (MCF-7): able to cause DNA damage; DNA damage (HT-29): able to cause DNA damage; DNA damage (PC-12): able to cause DNA damage; DNA damage (L-929): able to cause DNA damage; concentration causing the best antigenotoxic effects [8]: 8 µM; concentrations causing DNA damage [8]: ≥ 50 µM
